This is an account of results in ChEMBL document CHEMBL1139957, “Synthesis of furanosyl alpha-C-glycosides derived from 4-chloro-4-deoxy-alpha-D-galactose and their cytotoxic activities” (2007).

Format in all cases: functional
In assay [1] the test system is A549. Put plainly: Cytotoxicity against human A549 cells at 50 umol/mL after 48 hrs by MTT assay. A general note: Formazan colour is commonly taken as a measure of viable cells.
The subject of assay [2] is A549. Put plainly: Cytotoxicity against human A549 cells at 100 umol/mL after 48 hrs by MTT assay.
Assay [3] deals with A549. Kind of assay: Cytotoxicity against human A549 cells at 200 umol/mL after 48 hrs by MTT assay.

As a reminder, the Inhibition is the change of the read-out against control, counted positive when it falls. A high value points to strong suppression. As for `CCOC(=O)c1cc([C@H]2OC[C@@H](OS(C)(=O)=O)[C@@H]2Cl)oc1C`, the Inhibition with A549 [1] is recorded as 15.3%; in the assay on A549 [2], 18.55%; in the assay on A549 [3] it was 27.87%.
In the case of `CC(=O)c1cc([C@H]2OC[C@@H](N=[N+]=[N-])[C@@H]2Cl)oc1C`, the Inhibition was found to be 32.73% in the assay with A549 [1], 48.6% in the assay on A549 [2] and 56.7% in the assay with A549 [3].
In the case of `CCOC(=O)c1cc([C@H]2OC[C@@H](O)[C@@H]2Cl)oc1C`, the Inhibition in the assay on A549 [1] is recorded as 15.15%; in the assay on A549 [2], 18.51%; with A549 [3] it was 25.72%.
Taken in the same sequence, the figures for `CCOC(=O)c1cc([C@H]2OC[C@@H](N=[N+]=[N-])[C@@H]2Cl)oc1C` were 18.28%, 19.79% and 36.89%.
Regarding `COC(=O)c1cc([C@H]2OCC(=O)[C@@H]2Cl)oc1C`, the values for the Inhibition in the assay with A549 [1], in the assay with A549 [2] and with A549 [3] were 21.49%, 28.55% and 37.67%, respectively.
Consider `CC(=O)c1cc(C2OC[C@@H](O)[C@@H]2O)oc1C` (stereo partly drawn), for which the Inhibition is on record as 23.14% with A549 [1], 27.4% in the assay with A549 [2] and 33.09% in the assay with A549 [3].
The like results for `CC(=O)c1cc([C@H]2OC[C@@H](O)[C@@H]2Cl)oc1C` were, in that order, 24.36%, 31.92% and 39.36%.
Taken in the same sequence, the figures for `CCOC(=O)c1cc([C@H]2OCC(=O)[C@@H]2Cl)oc1C` were 28.81%, 31.36% and 45.68%.
The like results for `CC(=O)c1cc([C@H]2OC[C@@H](N)[C@@H]2Cl)oc1C` were, in that order, 13.04%, 24.86% and 34.57%.
For `CCOC(=O)c1cc([C@H]2OC[C@@H](N)[C@@H]2Cl)oc1C`, the Inhibition with A549 [1] is listed as 10.09%; with A549 [2] it was 16.29%; in the assay with A549 [3] it was 24.82%.
Taken in the same sequence, the figures for `CC(=O)c1cc([C@H]2OC[C@@H](OS(C)(=O)=O)[C@@H]2Cl)oc1C` were 26.42%, 35.65% and 46.8%.
